Experimental data as given in patent publication US20230295166A1, “ATR INHIBITORS AND USES THEREOF” (ANTENGENE DISCOVERY LIMITED, priority 2020, published 2023).

Test system: LoVo (CCL-229) cells
Assay: Tumor cell anti-proliferation assay (CTG assay)
Format: cell-based
Conditions: LoVo human colorectal cancer cells, 96 h, CellTiter-Glo
Experimental: Assay 2: Tumor Cell Anti-proliferation Assay (CTG Assay)
Human colorectal cancer cells HT-29 (HTB-38) and LoVo (CCL-229) were selected for the CTG assay, the two cell lines were originally obtained from the American Type Culture Collection (ATCC). FBS and appropriate additives were added into base medium to prepare complete medium, then the cell layer was briefly rinsed with 0.25% (w/v) Trypsin-0.038% (w/v) EDTA solution to remove all traces of serum that contains trypsin inhibitor. After that, appropriate volume of Trypsin-EDTA solution was added to flask and cells under an inverted microscope were observed until cell layer was dispersed. At last, appropriate volume of complete growth medium was added and cells were aspirated by gently pipetting. Numbers were collected and counted with Vi-cell XR and cell density was adjusted, cells were seeded into 96-well opaque-walled clear bottom tissue-culture treated plates in the CO2 incubator for 20-24 hours. All the test compounds were at 10 mM in DMSO. Compounds were then added to the cell media in 3-fold serial dilutions, the final DMSO concentration was 0.5%. Plates were incubated for 96 h at 5% CO2, 37° C. Before the measurement, the appropriate volume of CellTiter-Glo Buffer was transferred into the amber bottle containing CellTiter-Glo substrate to reconstitute the lyophilized enzyme/substrate mixture, mixed gently, thereby forming the CellTiter-Glo Reagent (Promega Cat. No. G7573). The plate and its contents were equilibrated to room temperature for approximately 30 minutes, then 100 μL of CellTiter-Glo Reagent was added to the assay plate, the contents were mixed for 2 minutes on an orbital shaker to induce cell lysis, incubated at room temperature for 10 minutes to stabilize luminescent signal. At last the clear bottom was pasted with white back seal and luminescence was recorded with Enspire. IC50 and GI50 values were calculated with XLFit curve fitting software using 4 Parameter Logistic Model Y=Bottom+(Top−Bottom)/(1+(IC50/X)^HillSlope).

Compound | IC50 [nM]
Cc1cc(-c2nsc3c(C(C)(C)C#N)cc(N4CCOC[C@H]4C)nc23)[nH]n1 [Example 54, (R)-2-methyl-2-(3-(3-methyl-1H-pyrazol-5-yl)-5-(3-methylmorpholino)isothiazolo[4,5-b]pyridin-7-yl)propanenitrile] | 66.7
C[C@@H]1COCCN1c1cc(C(C)(C)CO)c2snc(-c3ccn[nH]3)c2n1 [Example 100, (R)-2-methyl-2-(5-(3-methylmorpholino)-3-(1H-pyrazol-5-yl)isothiazolo[4,5-b]pyridin-7-yl)propan-1-ol] | 16
Cc1cc(-c2nsc3c(C(C)(C)CO)cc(N4CCOC[C@H]4C)nc23)[nH]n1 [Example 97, (R)-2-methyl-2-(3-(3-methyl-1H-pyrazol-5-yl)-5-(3-methylmorpholino)isothiazolo[4,5-b]pyridin-7-yl)propan-1-ol] | 10
Cc1cc(-c2nsc3c(C4(S(C)(=N)=O)CC4)cc(N4CCOC[C@H]4C)nc23)[nH]n1 (stereo partly drawn) [Example 94, imino(methyl)(1-(3-(3-methyl-1H-pyrazol-5-yl)-5-((R)-3-methylmorpholino)isothiazolo[4,5-b]pyridin-7-yl)cyclopropyl)-16-sulfanone] | 12
Cc1cc(-c2nsc3c(-c4c(C)cnn4C)cc(N4CCOC[C@H]4C)nc23)[nH]n1 [Example 71, (R)-4-(7-(1,4-dimethyl-1H-pyrazol-5-yl)-3-(3-methyl-1H-pyrazol-5-yl)isothiazolo[4,5-b]pyridin-5-yl)-3-methylmorpholine] | 23
C[C@@H]1COCCN1c1cc(-c2ccnn2C)n2ccc(-c3ccn[nH]3)c2n1 [Example 28, (R)-3-methyl-4-(4-(1-methyl-1H-pyrazol-5-yl)-8-(1H-pyrazol-5-yl)pyrrolo[1,2-a]pyrimidin-2-yl)morpholine] | 471
Cc1cc(-c2nsc3c(-c4cnnn4C)cc(N4CCOC[C@H]4C)nc23)[nH]n1 [Example 68, (R)-3-methyl-4-(7-(1-methyl-1H-1,2,3-triazol-5-yl)-3-(3-methyl-1H-pyrazol-5-yl)isothiazolo[4,5-b]pyridin-5-yl)morpholine] | 16
C[C@@H]1COCCN1c1cc(C2(C#N)CCCC2)c2cnc(-c3ccn[nH]3)n2n1 [Example 59, 1-{2-[(3R)-3-methylmorpholin-4-yl]-7-(1H-pyrazol-5-yl)imidazo[1,5-b]pyridazin-4-yl}cyclopentane-1-carbonitrile] | 28.1
Cc1cc(-c2nsc3c(C(C)(C)O)cc(N4CCOC[C@H]4C)nc23)[nH]n1 [Example 67, (R)-2-(3-(3-methyl-1H-pyrazol-5-yl)-5-(3-methylmorpholino)isothiazolo[4,5-b]pyridin-7-yl)propan-2-ol] | 5
Cc1nnn(C)c1-c1cc(N2CCOC[C@H]2C)nn2c(-c3ccn[nH]3)nc(C)c12 [Example 45, (3R)-4-[4-(dimethyl-1H-1,2,3-triazol-5-yl)-5-methyl-7-(1H-pyrazol-5-yl)imidazo[1,5-b]pyridazin-2-yl]-3-methylmorpholine] | 81.7
Cc1noc(C)c1-c1cc(N2CCOC[C@H]2C)nc2c(-c3ccn[nH]3)nsc12 [Example 72, (R)-4-(7-(3,5-dimethylisoxazol-4-yl)-3-(1H-pyrazol-5-yl)isothiazolo[4,5-b]pyridin-5-yl)-3-methylmorpholine] | 101
Cc1cc(-c2nsc3c(C4(CO)CCOCC4)cc(N4CCOC[C@H]4C)nc23)[nH]n1 [Example 105, (R)-(4-(3-(3-methyl-1H-pyrazol-5-yl)-5-(3-methylmorpholino)isothiazolo[4,5-b]pyridin-7-yl)tetrahydro-2H-pyran-4-yl)methanol] | 9
Cc1cc(-c2ncc3c(-c4ccnn4C)cc(N4CC5CCC(C4)O5)nn23)[nH]n1 [Example 79, 3-[4-(1-methyl-1H-pyrazol-5-yl)-7-(3-methyl-1H-pyrazol-5-yl)imidazo[1,5-b]pyridazin-2-yl]-8-oxa-3-azabicyclo[3.2.1]octane] | 246
Cc1nc(-c2ccn[nH]2)n2nc(N3CCOC[C@H]3C)cc(-c3ccnn3C)c12 [Example 36, (R)-3-methyl-4-(5-methyl-4-(1-methyl-1H-pyrazol-5-yl)-7-(1H-pyrazol-5-yl)imidazo[1,5-b]pyridazin-2-yl)morpholine] | 17.8
C[C@@H]1COCCN1c1cc(C2(O)CCCCC2)c2snc(-c3ccn[nH]3)c2n1 [Example 91, (R)-1-(5-(3-methylmorpholino)-3-(1H-pyrazol-5-yl)isothiazolo[4,5-b]pyridin-7-yl)cyclohexan-1-ol] | 2

Results, then the compound that gave them:

IC50 [nM] | Compound
5 | C[C@@H]1COCCN1c1cc(C2(C(N)=O)CCCC2)c2snc(-c3ccn[nH]3)c2n1 [Example 90, 1-{5-[(3R)-3-methylmorpholin-4-yl]-3-(1H-pyrazol-5-yl)-[1,2]thiazolo[4,5-b]pyridin-7-yl}cyclopentane-1-carboxamide]
26 | Cc1cc(-c2nsc3c(-c4ncnn4C)cc(N4CCOC[C@H]4C)nc23)[nH]n1 [Example 102, (R)-3-methyl-4-(7-(1-methyl-1H-1,2,4-triazol-5-yl)-3-(3-methyl-1H-pyrazol-5-yl)isothiazolo[4,5-b]pyridin-5-yl)morpholine]
79.3 | Cc1cc(-c2ncc3c(C(C)(C)S(C)(=O)=O)cc(N4CCOC[C@H]4C)nn23)[nH]n1 [Example 42, (R)-3-methyl-4-(7-(3-methyl-1H-pyrazol-5-yl)-4-(2-(methylsulfonyl)propan-2-yl)imidazo[1,5-b]pyridazin-2-yl)morpholine]
41 | Cc1cc(-c2nsc3c(-c4c(C)noc4C)cc(N4CCOC[C@H]4C)nc23)[nH]n1 [Example 73, (R)-4-(7-(3,5-dimethylisoxazol-4-yl)-3-(3-methyl-1H-pyrazol-5-yl)isothiazolo[4,5-b]pyridin-5-yl)-3-methylmorpholine]
36.6 | Cc1cc(-c2nsc3c(-c4ccnn4C)cc(N4CCOC[C@H]4C)nc23)[nH]n1 [Example 37, (R)-3-methyl-4-(7-(1-methyl-1H-pyrazol-5-yl)-3-(3-methyl-1H-pyrazol-5-yl)isothiazolo[4,5-b]pyridin-5-yl)morpholine]
129 | Cc1cc(-c2ncc3c(-c4c(C)nnn4C)cc(N4CCOC[C@H]4C)nn23)[nH]n1 [Example 35, (3R)-4-(4-(1,4-dimethyl-1H-1,2,3-triazol-5-yl)-7-(3-methyl-1H-pyrazol-5-yl)imidazo[1,5-b]pyridazin-2-yl)-3-methylmorpholine]
15 | C[C@@H]1COCCN1c1cc(-c2cnnn2C)c2snc(-c3ccn[nH]3)c2n1 [Example 69, (R)-3-methyl-4-(7-(1-methyl-1H-1,2,3-triazol-5-yl)-3-(1H-pyrazol-5-yl)isothiazolo[4,5-b]pyridin-5-yl)morpholine]
26.5 | C[C@@H]1COCCN1c1cc(-c2ccnn2C)c2c(Cl)nc(-c3ccn[nH]3)n2n1 [Example 61, (3R)-4-[5-chloro-4-(1-methyl-1H-pyrazol-5-yl)-7-(1H-pyrazol-5-yl)imidazo[1,5-b]pyridazin-2-yl]-3-methylmorpholine]
9 | Cc1cc(-c2nsc3c(C4(O)CCCCC4)cc(N4CCOC[C@H]4C)nc23)[nH]n1 [Example 86, (R)-1-(3-(3-methyl-1H-pyrazol-5-yl)-5-(3-methylmorpholino)isothiazolo[4,5-b]pyridin-7-yl)cyclohexan-1-ol]
1000 | C[C@@H]1COCCN1c1cc(C2(S(C)(=O)=O)CC2)nc(Nc2cc(Cl)n[nH]2)n1 [Example 77, (R)—N-(3-chloro-1H-pyrazol-5-yl)-4-(3-methylmorpholino)-6-(1-(methylsulfonyl)cyclopropyl)pyrimidin-2-amine]
154 | Cc1cc(-c2nsc3c(Cl)cc(N4CCOC[C@H]4C)nc23)[nH]n1 [Example 104, (R)-4-(7-chloro-3-(3-methyl-1H-pyrazol-5-yl)isothiazolo[4,5-b]pyridin-5-yl)-3-methylmorpholine]
86.6 | C[C@@H]1COCCN1c1cc(C(C)(C)S(C)(=O)=O)c2cnc(-c3ccn[nH]3)n2n1 [Example 41, (3R)-4-[4-(2-methanesulfonylpropan-2-yl)-7-(1H-pyrazol-5-yl)imidazo[1,5-b]pyridazin-2-yl]-3-methylmorpholine]
15.5 | C[C@@H]1COCCN1c1cc(-c2cccnc2C(F)(F)F)c2snc(-c3ccn[nH]3)c2n1 [Example 101, (3R)-3-methyl-4-[3-(1H-pyrazol-5-yl)-7-[2-(trifluoromethyl)pyridin-3-yl]-[1,2]thiazolo[4,5-b]pyridin-5-yl]morpholine]
46 | Cc1cc(-c2nsc3c(C4(O)CCCC4)cc(N4CCOC[C@H]4C)nc23)[nH]n1 [Example 106, (R)-1-(3-(3-methyl-1H-pyrazol-5-yl)-5-(3-methylmorpholino)isothiazolo[4,5-b]pyridin-7-yl)cyclopentan-1-ol]
152 | Cn1nccc1-c1cc(N2CC3CCC(C2)O3)nn2c(-c3ccn[nH]3)ncc12 [Example 78, 3-[4-(1-methyl-1H-pyrazol-5-yl)-7-(1H-pyrazol-5-yl)imidazo[1,5-b]pyridazin-2-yl]-8-oxa-3-azabicyclo[3.2.1]octane]
